{"source": "patent US20120276634A1", "about": "“SOMATIC EMBRYOGENESIS AND EMBRYO HARVESTING AND METHOD AND APPARATUS FOR PREPARING PLANT EMBRYOS FOR PLANT PRODUCTION” (ArborGen Inc., priority 2005, published 2012)", "key": {"[1]": {"tested_on": "loblolly pine embryogenic cell lines (J and K)", "assay": "Effect of brassinolide in post cryostorage recovery medium on embryo production and embryo production potential", "format": "cell-based", "details": "0.1 μM in high casein Mi3", "method": "Five J cell lines and five K lines were tested. For each cell line, 4 vials (2 post-cryo recovery media×2 replications) were retrieved from cryostorage. Recovered tissue from each vial was transferred to their respective fresh medium at 2 week intervals using a raft transfer method. Weight data was recorded for tissue derived from each vial at the 6th week after cryo-retrieval. At the 6th week, tissues from both reps of each treatment were pooled and maintained on their respective maintenance medium using a tissue dispersion method: 200 mg per sample in 1 ml liquid Mi3 medium dispersed by agitation and poured onto each culture plate. A total of 800 mg of tissue from each cell line×post-cryo media combination were plated on embryo development medium (4 reps of 200 mg/plate) to test embryo production capacity. Total tissue weight at each subculture was recorded to calculate the potential of each treatment for tissue bulk up and embryo production. Harvestable somatic embryos from each plate were recorded at 9 weeks of incubation on MSG embryo development medium (Tables 1 and 2). Embryo production data was analyzed separately for the J and K cell lines using PROCGLM procedure of SAS. Embryo production potential for each treatment was calculated by multiplying embryo production data by the total potential tissue produced in each cell line and treatment. The effect of brassinolide in the improved Mi3 bulk up medium on subsequent embryo production was tested. […] Since cell line×media treatment interaction was highly significant, data from each line was analyzed separately for each treatment."}, "[2]": {"tested_on": "loblolly pine embryogenic cell lines (J and K)", "assay": "Effect of brassinolide in post cryostorage recovery medium on tissue production", "format": "cell-based", "details": "0.1 μM in high casein Mi3", "from_the_text": "This experiment addresses whether brassinolide in the post-cryogenic storage bulk up medium has a positive effect on tissue recovery and growth enabling faster tissue multiplication and bulk up; and whether there is a cell-line-by-treatment (with or without brassinolide) interaction that can be exploited to enable genotype screening to optimize the best combination for each cell line in terms of both tissue growth and subsequent somatic embryo production. Two post-cryostrorage recovery (bulk up) media treatments were tested: Treatment #1: Mi3 medium (Tables 1 and 2) with high (2.0 g/liter) casein (the improved medium) Treatment #2: The same high casein Mi3 with addition of 0.1 μM Brassinolide Five J cell lines and five K lines were tested. For each cell line, 4 vials (2 post-cryo recovery media×2 replications) were retrieved from cryostorage. Recovered tissue from each vial was transferred to their respective fresh medium at 2 week intervals using a raft transfer method. Weight data was recorded for tissue derived from each vial at the 6th week after cryo-retrieval. At the 6th week, tissues from both reps of each treatment were pooled and maintained on their respective maintenance medium using a tissue dispersion method: 200 mg per sample in 1 ml liquid Mi3 medium dispersed by agitation and poured onto each culture plate. A total of 800 mg of tissue from each cell line×post-cryo media combination were plated on embryo development medium (4 reps of 200 mg/plate) to test embryo production capacity. Total tissue weight at each subculture was recorded to calculate the potential of each treatment for tissue bulk up and embryo production. Harvestable somatic embryos from each plate were recorded at 9 weeks of incubation on MSG embryo development medium (Tables 1 and 2). Embryo production data was analyzed separately for the J and K cell lines using PROCGLM procedure of SAS. Embryo production potential for each treatment was calculated by multiplying embryo production data by the total potential tissue produced in each cell line and treatment."}}}
{"smiles": "CC(C)[C@H](C)[C@@H](O)[C@H](O)[C@@H](C)[C@H]1CC[C@H]2[C@@H]3COC(=O)[C@H]4C[C@H](O)[C@H](O)C[C@]4(C)[C@H]3CC[C@]12C", "note": "[brassinolide, Brassinolide]", "values": [{"measurement": "embryo production potential compared to the improved Mi3 without brassinolide", "setting": "[1]; J cell lines", "result": 149, "unit": "%"}, {"measurement": "embryo production potential compared to the improved Mi3 without brassinolide", "setting": "[1]; K cell lines", "result": 136, "unit": "%"}, {"measurement": "embryo production potential, higher compared to the control", "setting": "[1]; both J and K lines", "result": "> 35", "unit": "%"}, {"measurement": "amount of tissue compared to the improved medium without brassinolide", "setting": "[2]; J lines", "result": 127, "unit": "%"}, {"measurement": "amount of tissue compared to the improved medium without brassinolide", "setting": "[2]; K lines", "result": 191, "unit": "%"}, {"measurement": "tissue production", "setting": "[2]; all 10 cell lines", "result": "produced highest amount of tissue"}, {"measurement": "increase in growth", "setting": "[2]; slow-recovering cell lines K10, K11 and J4", "result": "two to three-fold"}]}
